For orientation: IC50 means the concentration needed to halve the response being measured. In general, Papp refers to a coefficient for how fast a substance crosses the barrier.

SMILES strings stand for the structures.

In series [1] the target is T1, Amine oxidase [flavin-containing] A (Homo sapiens, UniProt P21397).
T1 sequence (P21397 whole entry): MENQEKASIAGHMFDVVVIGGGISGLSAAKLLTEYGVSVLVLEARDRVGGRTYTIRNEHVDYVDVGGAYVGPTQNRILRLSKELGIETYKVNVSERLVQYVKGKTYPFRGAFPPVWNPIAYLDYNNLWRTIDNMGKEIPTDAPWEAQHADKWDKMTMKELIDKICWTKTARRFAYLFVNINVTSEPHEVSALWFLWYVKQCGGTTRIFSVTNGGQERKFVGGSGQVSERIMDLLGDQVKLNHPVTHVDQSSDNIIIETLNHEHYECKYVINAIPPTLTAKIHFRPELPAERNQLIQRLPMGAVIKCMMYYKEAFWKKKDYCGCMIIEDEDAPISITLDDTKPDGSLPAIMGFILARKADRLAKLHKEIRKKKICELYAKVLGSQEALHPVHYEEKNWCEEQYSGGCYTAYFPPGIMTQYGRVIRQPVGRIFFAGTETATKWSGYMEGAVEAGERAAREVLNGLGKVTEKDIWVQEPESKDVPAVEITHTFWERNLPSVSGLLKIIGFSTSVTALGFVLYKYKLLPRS
Description: Inhibition of human MAO-A preincubated for 15 mins followed by p-tyramine substrate addition and measured after 20 mins by Amplex red reagent based fluorescence assay.

Series [2] addresses T2, Amine oxidase [flavin-containing] B (Homo sapiens, UniProt P27338).
T2 sequence (P27338 whole entry): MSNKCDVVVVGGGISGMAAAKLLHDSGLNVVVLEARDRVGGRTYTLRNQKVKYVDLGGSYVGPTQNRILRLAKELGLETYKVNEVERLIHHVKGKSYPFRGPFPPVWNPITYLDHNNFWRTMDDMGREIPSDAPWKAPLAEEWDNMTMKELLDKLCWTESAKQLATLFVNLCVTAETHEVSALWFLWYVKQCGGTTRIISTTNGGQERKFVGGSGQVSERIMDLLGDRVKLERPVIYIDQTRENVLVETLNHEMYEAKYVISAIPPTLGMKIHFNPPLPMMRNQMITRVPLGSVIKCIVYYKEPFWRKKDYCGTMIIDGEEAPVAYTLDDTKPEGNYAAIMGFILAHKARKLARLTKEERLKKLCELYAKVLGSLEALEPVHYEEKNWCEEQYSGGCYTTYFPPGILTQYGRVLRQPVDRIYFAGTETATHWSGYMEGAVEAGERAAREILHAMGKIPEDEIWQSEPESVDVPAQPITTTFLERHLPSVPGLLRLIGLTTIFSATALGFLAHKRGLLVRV

Series [3] is filed under the species Homo sapiens. The series can be described thus: Selectivity ratio of IC50 for human MAO-A to IC50 for human MAO-B.
Series [4] is described as follows: Antioxidant activity assessed as inhibition of DPPH free radical after 30 mins by UV-Visible spectrophotometric analysis. It counts as functional. On the technique in general: Loss of DPPH colour is used to gauge radical scavenging.
Series [5] is described as follows: Antioxidant activity assessed as ABTS radical cation scavenging activity by measuring trolox equivalents after 150 mins. It counts as functional.
The nature of series [6]: Antioxidant activity assessed as ferric ion reduction by measuring trolox equivalents after 3 to 5 mins by FRAP assay. It counts as functional.
Series [7] in a line: in vitro. More on the design: dose or concentration left out as unconfirmed. Conditions: PAMPA. (In general: The PAMPA barrier holds no transporters, so it reflects passive diffusion.)
Description: Effective permeability of the compound at 100 mg/ml incubated for 16 hrs by PAMPA-BBB assay

Consider `CC(C)=CCc1c(O)cc([C@@H](Oc2ccc(/C=C/c3cc(O)c4c(c3)OC(C)(C)CC4)cc2)[C@@H](C)c2ccc(O)cc2)cc1O`, for which the IC50 in series [1] was 18.9 µM; in series [2], 9.23 µM; in series [4], 150 µM. The Ratio IC50 in series [3] amounted to 2.05. Further, the Activity stood at 0.89 equiv in series [5] and 1.26 equiv in series [6].
In the case of `Oc1ccc([C@H]2Oc3ccc(/C=C/c4cc(O)cc(O)c4)cc3[C@@H]2c2cc(O)cc(O)c2)cc1`, the IC50 was 8.93 µM in series [1], 2.39 µM in series [2] and 76.8 µM in series [4]. For the same compound, in series [3], the Ratio IC50 was 3.74.
On to `CC(C)=CCc1c(O)cc(/C=C/c2ccc(O)cc2)cc1O` [ARACHIDIN-2], for which the IC50 in series [1] was found to be 11.3 µM; in series [2], 3.62 µM; in series [4], 73.3 µM. In addition, in series [3], the Ratio IC50 turned out to be 3.1. Moreover, the Activity in series [5] was 1.23 equiv; in series [6], 1.03 equiv.
On to `CO[C@@H](c1ccc(O)cc1)[C@H](Oc1ccc(/C=C/c2cc(O)c3c(c2)OC(C)(C)CC3)cc1)c1cc(O)c(CC=C(C)C)c(O)c1`, for which the IC50 turned out to be 10.6 µM in series [1], 1.9 µM in series [2] and 185 µM in series [4]. Also, the Ratio IC50 in series [3] was 5.58. The results for the Activity in series [5] and in series [6] were 0.29 equiv and 1.04 equiv, respectively.
For the compound `Cc1c(C)c2c(c(C)c1O)CCC(C)(C(=O)O)O2` (stereo not given) [TROLOX], in series [4], the IC50 is 49.8 µM. The Activity in series [5] and in series [6] was 1 equiv each time.
Regarding `C[C@]12CC[C@@H]3c4ccc(O)cc4CC[C@H]3[C@@H]1CC[C@@H]2O` [ESTRADIOL], the Papp at 16 h in series [7] worked out at 13.3 ×10⁻⁶ cm/s.
Turning to `Oc1ccc(/C=C/c2cc(O)cc(O)c2)cc1` [RESVERATROL], the IC50 in series [2] was 5.01 µM; in series [4] it was 79.9 µM. The results for the Activity in series [5] and in series [6] were 1.07 equiv and 0.98 equiv, respectively.

The values above are taken from ChEMBL document CHEMBL4330083, “Synthesis and evaluation of isoprenylation-resveratrol dimer derivatives against Alzheimer's disease” (Eur J Med Chem, 2019).
